Assay results reported in patent US20030114445A1, “N3-substituted 6-anilinopyrimidines and methods to treat-Gram-positive bacterial and mycoplasmal infections” (priority 2001, published 2003).
Values after ≈ are worked out from the molar mass of the structure shown. Like-named read-outs stand apart in the source and are kept apart here.

Experiments:
B.subtilis pol IIIC = B.subtilis pol IIIC (Bacillus subtilis, UniProt P13267); experiment: biochemical
Description: DNA pol activity was assayed as described in Barnes et al., Nuc. Acids Res., 6:1203-19 (1979), using activated “nicked” calf-thymus DNA as template primer, 10 pM [^3H-methyl]-dTTP as the labelled dNTP substrate, and dATP, dCTP, and dGTP at 25 μM each.
Inhibitory activity of the compounds is determined by measuring the ability of the agent to inhibit enzyme-catalyzed incorporation of [^3H]-dTMP into nicked calf thymus DNA in the absence of the competitor dGTP or dATP (“truncated assay”) (see G. E. Wright and N. C. Brown, Inhibition of Bacillus subtilis DNA Polymerase III by Arylhydrazinopyrimidines: Novel Properties of 2-Thiouracil Derivatives, Biochim. Biophys. Acta 432:37-48 (1976)). Purified pol IIIC is added to a buffered solution containing Mg^2+, DTT, glycerol, nicked calf thymus DNA, saturating concentrations of dATP, dCTP, dTTP and [^3H]-dTTP. Reaction mixtures are incubated at 30° C. for 10 minutes, quenched and filtered, and radioactivity in the acid-insoluble material measured by scintillation counting. Experiments are done in triplicate. Inhibitors are assayed by addition of several dilutions of a stock solution of inhibitor (DMSO or water, depending on solubility) before enzyme addition. […] The truncated assay, i.e. exclusion of the competitive substrate dGTP or dATP, depending upon whether the compound is a uracil derivative or an isocytosine derivative, respectively, allows for the direct determination of apparent inhibitor constants (K,) in this assay system.

B. subtilis = experiment: Inhibition of bacterial growth on agar plates (MIC); type: cell-based; details: Bacillus subtilis, 37° C., 24 hours
Description: (§1) Each compound is assayed against a panel of Bacillus, Enterococcus and Staphylococcus, and a Gram-negative bacterium Escherichia coli as negative control, grown in appropriate plate media solidified with 1.3% agar-agar. Stock solutions of the compounds in dimethylsulfoxide or water, depending on solubility, are added to sterile medium at a temperature of 60° C. […] One tenth mL of diluted bacteria containing 500-1000 colony-forming units (CFU) are plated and spread, and the plates incubated at 37° C. for 24 hours. MIC (minimum inhibitory concentration) is equivalent to the lowest concentration at which growth, i.e. colony formation, is not observed.

S.aureus (Smith) = experiment: as above; type: cell-based; details: Staphylococcus aureus, 37° C., 24 hours
Description: as §1

E. fecalis = experiment: as above; type: cell-based; details: 37° C., 24 hours
Description: as §1

E. fecium = experiment: as above; type: cell-based; details: 37° C., 24 hours
Description: as §1

Sequence of B.subtilis pol IIIC (P13267 whole entry): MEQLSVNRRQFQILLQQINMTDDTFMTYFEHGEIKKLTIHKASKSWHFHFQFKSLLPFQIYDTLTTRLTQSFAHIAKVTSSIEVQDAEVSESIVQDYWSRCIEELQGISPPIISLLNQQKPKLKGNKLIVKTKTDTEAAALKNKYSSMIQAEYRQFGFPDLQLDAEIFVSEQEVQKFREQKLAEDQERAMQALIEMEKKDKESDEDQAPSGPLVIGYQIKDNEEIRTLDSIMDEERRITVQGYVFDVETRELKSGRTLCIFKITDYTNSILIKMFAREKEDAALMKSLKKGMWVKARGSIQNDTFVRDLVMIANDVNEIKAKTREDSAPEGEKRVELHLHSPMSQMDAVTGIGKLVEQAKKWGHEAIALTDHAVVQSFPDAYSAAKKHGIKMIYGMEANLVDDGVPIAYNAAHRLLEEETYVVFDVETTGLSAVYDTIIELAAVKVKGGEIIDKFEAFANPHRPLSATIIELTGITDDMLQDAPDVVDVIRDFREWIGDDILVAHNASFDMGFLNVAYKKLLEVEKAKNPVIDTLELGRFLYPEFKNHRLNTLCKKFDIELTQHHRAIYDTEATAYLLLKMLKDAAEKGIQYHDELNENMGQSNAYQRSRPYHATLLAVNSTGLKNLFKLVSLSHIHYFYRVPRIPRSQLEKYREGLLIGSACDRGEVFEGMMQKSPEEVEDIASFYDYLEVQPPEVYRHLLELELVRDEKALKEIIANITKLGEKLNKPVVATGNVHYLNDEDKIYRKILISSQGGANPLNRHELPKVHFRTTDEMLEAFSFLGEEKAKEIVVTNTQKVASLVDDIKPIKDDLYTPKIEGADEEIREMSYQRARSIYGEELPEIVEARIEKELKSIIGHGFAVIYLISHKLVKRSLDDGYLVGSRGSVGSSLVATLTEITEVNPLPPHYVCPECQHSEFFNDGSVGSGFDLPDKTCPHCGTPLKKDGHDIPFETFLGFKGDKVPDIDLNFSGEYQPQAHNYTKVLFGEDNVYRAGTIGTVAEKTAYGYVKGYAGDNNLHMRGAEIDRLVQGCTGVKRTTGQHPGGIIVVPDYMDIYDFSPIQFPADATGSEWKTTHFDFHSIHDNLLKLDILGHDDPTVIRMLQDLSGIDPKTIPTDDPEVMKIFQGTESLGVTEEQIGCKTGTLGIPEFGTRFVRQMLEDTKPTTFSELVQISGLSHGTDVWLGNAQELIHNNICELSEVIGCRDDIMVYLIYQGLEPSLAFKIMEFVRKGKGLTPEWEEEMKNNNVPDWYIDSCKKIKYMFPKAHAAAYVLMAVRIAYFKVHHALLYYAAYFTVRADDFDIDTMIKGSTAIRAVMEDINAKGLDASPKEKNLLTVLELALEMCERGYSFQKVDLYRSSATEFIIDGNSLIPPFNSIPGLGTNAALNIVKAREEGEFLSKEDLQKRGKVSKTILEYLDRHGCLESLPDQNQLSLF

Compound	Ki (B.subtilis pol IIIC)	MIC (B. subtilis)	MIC (S.aureus (Smith))	MIC (E. fecalis)	MIC (E. fecium)	Ki (B.subtilis pol IIIC; truncated assay, apparent inhibitor constant, read-out: K1 B.subtilis pol IIIC)
CCc1cc(Nc2cc(=O)n(CCOCCOCc3ccccc3)c(=O)[nH]2)ccc1C [Compound 5, 3-[2-(2-Benzyloxyethoxy)ethyl]-6-(3-ethyl-4-methylanilino)uracil]	56 nM	< 1.25 µg/mL	5 µg/mL (≈ 11.8 µM)	5 µg/mL (≈ 11.8 µM)	10 µg/mL (≈ 23.6 µM)	–
CCOC(=O)CCCCn1c(=O)cc(Nc2ccc(C)c(CC)c2)[nH]c1=O [Compound 6, 3-(4-Ethoxycarbonylbutyl)-6-(3-ethyl-4-methylanilino)uracil]	76 nM	< 1.25 µg/mL	2.5 µg/mL (≈ 6.69 µM)	5 µg/mL (≈ 13.4 µM)	< 1.25 µg/mL	–
CCc1cc(Nc2cc(=O)n(C/C=C/C(=O)OC)c(=O)[nH]2)ccc1C [Compound 7, 3-[3-(Methoxycarbonyl)-2-propenyl]-6-(3-ethyl-4-methylanilino)uracil]	320 nM	2.5 µg/mL (≈ 7.28 µM)	10 µg/mL (≈ 29.1 µM)	20 µg/mL (≈ 58.2 µM)	5 µg/mL (≈ 14.6 µM)	–
CCc1cc(Nc2cc(=O)n(CCCC(C)=O)c(=O)[nH]2)ccc1C [Compound 8, 3-(4-Oxopentyl)-6-(3-ethyl-4-methylanilino)uracil]	61 nM	< 1.25 µg/mL	5 µg/mL (≈ 15.2 µM)	5 µg/mL (≈ 15.2 µM)	5 µg/mL (≈ 15.2 µM)	–
CCOC(=O)CCCn1c(=O)cc(Nc2ccc(C)c(CC)c2)[nH]c1=O [Compound 10, 3-[3-(Ethoxycarbonyl)propyl]-6-(3-ethyl-4-methylanilino)uracil]	100 nM	< 1.25 µg/mL	2.5 µg/mL (≈ 6.96 µM)	5 µg/mL (≈ 13.9 µM)	2.5 µg/mL (≈ 6.96 µM)	–
CCc1cc(Nc2cc(=O)n(CC(=O)N(CC)CC)c(=O)[nH]2)ccc1C [Compound 11, 3-[(N,N-Diethylaminocarbonyl)methyl]-6-(3-ethyl-4-methylanilino)uracil]	450 nM	2.5 µg/mL (≈ 6.97 µM)	10 µg/mL (≈ 27.9 µM)	20 µg/mL (≈ 55.8 µM)	20 µg/mL (≈ 55.8 µM)	–
CCc1cc(Nc2cc(=O)n(CCOCCOC)c(=O)[nH]2)ccc1C [Compound 12, 3-[2-(2-Methoxyethoxy)ethyl]-6-(3-ethyl-4-methylanilino)uracil]	45 nM	2.5 µg/mL (≈ 7.2 µM)	2.5 µg/mL (≈ 7.2 µM)	5 µg/mL (≈ 14.4 µM)	5 µg/mL (≈ 14.4 µM)	–
CCc1cc(Nc2cc(=O)n(CC#CCO)c(=O)[nH]2)ccc1C [Compound 13, 3-(4-Hydoxy-2-butynyl)-6-(3-ethyl-4-methylanilino)uracil]	68 nM	5 µg/mL (≈ 16 µM)	5 µg/mL (≈ 16 µM)	10 µg/mL (≈ 31.9 µM)	10 µg/mL (≈ 31.9 µM)	–
CCc1cc(Nc2cc(=O)n(CCN(CC)CC)c(=O)[nH]2)ccc1C [Compound 14, 3-[2-(N,N-diethylamino)ethyl]-6-(3-ethyl-4-methylanilino)uracil]	530 nM	10 µg/mL (≈ 29 µM)	20 µg/mL (≈ 58.1 µM)	20 µg/mL (≈ 58.1 µM)	20 µg/mL (≈ 58.1 µM)	–
CCc1cc(Nc2cc(=O)n(CC(C)=O)c(=O)[nH]2)ccc1C [Compound 15, 3-(2-Oxopropyl)-6-(3-ethyl-4-methylanilino)uracil]	303 nM	2.5 µg/mL (≈ 8.3 µM)	10 µg/mL (≈ 33.2 µM)	20 µg/mL (≈ 66.4 µM)	10 µg/mL (≈ 33.2 µM)	–
CCc1cc(Nc2cc(=O)n(CCNS(C)(=O)=O)c(=O)[nH]2)ccc1C [Compound 16, 3-[2-(Methanesulfonylamino)ethyl]-6-(3-ethyl-4-methylanilino)uracil]	290 nM	5 µg/mL (≈ 13.6 µM)	10 µg/mL (≈ 27.3 µM)	20 µg/mL (≈ 54.6 µM)	10 µg/mL (≈ 27.3 µM)	–
CCc1cc(Nc2cc(=O)n(CCN3CCOCC3)c(=O)[nH]2)ccc1C [Compound 17, 3-[2-(N-morpholino)ethyl]-6-(3-ethyl-4-methylanilino)uracil]	90 nM	< 1.25 µg/mL	5 µg/mL (≈ 13.9 µM)	5 µg/mL (≈ 13.9 µM)	2.5 µg/mL (≈ 6.97 µM)	–
CCc1cc(Nc2cc(=O)n(CCCCCCCCO)c(=O)[nH]2)ccc1C [Compound 18, 3-(8-Hydroxyoctyl)-6-(3-ethyl-4-methylanilino)uracil]	26 nM	1.25 µg/mL (≈ 3.35 µM)	2.5 µg/mL (≈ 6.69 µM)	2.5 µg/mL (≈ 6.69 µM)	2.5 µg/mL (≈ 6.69 µM)	–
CCc1cc(Nc2cc(=O)n(CCCC#N)c(=O)[nH]2)ccc1C [Compound 19, 3-(3-Cyanopropyl)-6-(3-ethyl-4-methylanilino)uracil]	140 nM	2.5 µg/mL (≈ 8 µM)	2.5 µg/mL (≈ 8 µM)	5 µg/mL (≈ 16 µM)	5 µg/mL (≈ 16 µM)	–
CCc1cc(Nc2cc(=O)n(CCCCC#N)c(=O)[nH]2)ccc1C [Compound 20, 3-(4-Cyanobutyl)-6-(3-ethyl-4-methylanilino)uracil]	94 nM	2.5 µg/mL (≈ 7.66 µM)	2.5 µg/mL (≈ 7.66 µM)	2.5 µg/mL (≈ 7.66 µM)	5 µg/mL (≈ 15.3 µM)	–
CCc1cc(Nc2cc(=O)n(CCOCCOCCO)c(=O)[nH]2)ccc1C [Compound 21, 3-{2-[2-Hydroxyethoxy-(2-ethoxy)]ethyl}-6-(3-ethyl-4-methylanilino)uracil]	87 nM	2.5 µg/mL (≈ 6.62 µM)	10 µg/mL (≈ 26.5 µM)	10 µg/mL (≈ 26.5 µM)	10 µg/mL (≈ 26.5 µM)	–
CCc1cc(Nc2cc(=O)n(CCCCOC(C)=O)c(=O)[nH]2)ccc1C [Compound 22, 3-(4-Acetoxybutyl)-6-(3-ethyl-4-methylanilino)uracil]	58 nM	1.25 µg/mL (≈ 3.48 µM)	2.5 µg/mL (≈ 6.96 µM)	5 µg/mL (≈ 13.9 µM)	5 µg/mL (≈ 13.9 µM)	–
CCc1cc(Nc2cc(=O)n(CCCC(O)CO)c(=O)[nH]2)ccc1C (stereo not drawn) [Compound 23, 3-(4,5-Dihydroxypentyl)-6-(3-ethyl-4-methylanilino)uracil]	96 nM	10 µg/mL (≈ 28.8 µM)	20 µg/mL (≈ 57.6 µM)	20 µg/mL (≈ 57.6 µM)	20 µg/mL (≈ 57.6 µM)	–
CCc1cc(Nc2cc(=O)n(CCCN3CCOCC3)c(=O)[nH]2)ccc1C [Compound 24, 3-[3-(N-Morpholino)propyl]-6-(3-ethyl-4-methylanilino)uracil]	110 nM	2.5 µg/mL (≈ 6.71 µM)	10 µg/mL (≈ 26.8 µM)	10 µg/mL (≈ 26.8 µM)	5 µg/mL (≈ 13.4 µM)	–
CCc1cc(Nc2cc(=O)n(CC(C)CO)c(=O)[nH]2)ccc1C (stereo not drawn) [Compound 25, 3-(3-Hydroxy-2-methylpropyl)-6-(3-ethyl-4-methylanilino)uracil]	110 nM	< 1.25 µg/mL	5 µg/mL (≈ 15.8 µM)	5 µg/mL (≈ 15.8 µM)	2.5 µg/mL (≈ 7.88 µM)	–
CCc1cc(Nc2cc(=O)n(CCCCCCO)c(=O)[nH]2)ccc1C [Compound 27, 3-(6-Hydroxyhexyl)-6-(3-ethyl-4-methylanilino)uracil]	49 nM	< 1.25 µg/mL	2.5 µg/mL (≈ 7.24 µM)	2.5 µg/mL (≈ 7.24 µM)	5 µg/mL (≈ 14.5 µM)	–
CCc1cc(Nc2cc(=O)n(CCCC(=O)O)c(=O)[nH]2)ccc1C [Compound 31, 3-(3-Carboxypropyl)-6-(3-ethyl-4-methylanilino)uracil]	57 nM	> 20 µg/mL	10 µg/mL (≈ 30.2 µM)	> 20 µg/mL	20 µg/mL (≈ 60.4 µM)	–
CCc1cc(Nc2cc(=O)n(C/C=C/CO)c(=O)[nH]2)ccc1C [Compound 32, 3-(4-Hydroxy-2-butenyl)-6-(3-ethyl-4-methylanilino)uracil]	51 nM	1.25 µg/mL (≈ 3.96 µM)	5 µg/mL (≈ 15.9 µM)	5 µg/mL (≈ 15.9 µM)	2.5 µg/mL (≈ 7.93 µM)	–
CCc1cc(Nc2cc(=O)n(CCCCN3CCSCC3)c(=O)[nH]2)ccc1C [Compound 36, 3-[(N-Thiomorpholino)butyl]-6-(3-ethyl-4-methylanilino)uracil]	–	5 µg/mL (≈ 12.4 µM)	10 µg/mL (≈ 24.8 µM)	5 µg/mL (≈ 12.4 µM)	5 µg/mL (≈ 12.4 µM)	68 nM
